Measured values published in article PMC8036666, “Biological and Physico-Chemical Characteristics of Arginine-Rich Peptide Gemini Surfactants with Lysine and Cystine Spacers” (International Journal of Molecular Sciences, 2021).
Converted amounts (≈) assume the structure as drawn. “And” between values parts separate entries of the source, which are not always exact repeats. Identical values can stand only once. Like-named read-outs stand apart in the source and are kept apart here. Where a SMILES comes first, the peptide text is derived from it. Bridges are numbered along the chain shown (N, C = ends). Roman numbers before positions name the chains, in order. Side-chain parts run from the residue outwards. The star is where a group is joined. Myristoyl = CCCCCCCCCCCCCC(=O)*; Lauroyl = CCCCCCCCCCCC(=O)*; Decanoyl = CCCCCCCCCC(=O)*; Octanoyl = CCCCCCCC(=O)*

Assays:
[1] = Lipopeptide hydrophobicity by RP-HPLC (adjusted retention time); format: physicochemical; conditions: for Adjusted Retention Time: RP-HPLC, 20–65% acetonitrile over 30 min, indicator of hydrophobicity
Method: (§1) The identity of the purified peptides was confirmed with electrospray ionization mass spectrometry (ESI-MS) in positive ion mode. Results of MS analyses and net charge are attached in Supplementary Materials (Table S1). Peptides’ hydrophobicity was evaluated by analytical reversed-phase high-performance liquid chromatography (RP-HPLC). The critical aggregation concentrations (CACs) of the lipopeptides were determined in unbuffered aqueous solution at 298 K by measuring the surface tension as a function of lipopeptide concentration. The measurements were carried out by the Du Noüy ring method on a K100 tensiometer. The surface tension data were plotted against the logarithm of lipopeptide concentration. CAC was found as the intersection of two lines being linear regression of data below and above CAC.
Lipopeptide hydrophobicity was determined as described previously. To do this, a Waters Alliance e2695 system with a Waters 2998 PDA Detector (software-Empower 3, Waters, Milford, MA, USA) was used. All analyses were carried out on a Waters X-Bridge Shield RP-18 column (3.0 × 100 mm, 3.5 μm particle size, 130 Å pore size). The Shield Technology column with embedded polar groups was used to minimize interactions of unreacted silanol groups with basic lipopeptides. The peptides were dissolved in water (0.1% TFA, v/v) up to a concentration of 1 mg/mL. UV detection at 214 nm was used, and samples (10 μL) were eluted with a linear 20–65% acetonitrile gradient in deionized water over 30 min at 25.0 ± 0.1 °C. The mobile phase flow rate was 0.5 mL/min. Both eluents contained 0.1% (v/v) of TFA. Each peptide sample was analyzed in triplicate. The maximum standard deviation and coefficient of variation were 0.044 and 0.85%, respectively.

[2] = tested on: HaCaT cells; format: cell-based, human; conditions: 24 h
Method: Cells were trypsinized, and the medium was renewed 2–3 times per week. The cytotoxicity of compounds was assessed by the determination of cell metabolic activity by colorimetric CellTilter 96® Aqueous One Solution Cell Proliferation Assay (Promega, Madison, WI, USA), according to the manufacturer’s instructions. […] Every compound was medium-soluble in 37 °C; thus, the control cells were cultured with the medium. Serial dilutions of the tested compounds were always prepared prior to use. Cells were incubated with drugs for 24 h, and then, 20 μL of the CellTiter 96®AqueousOne Solution Reagent was added to each well containing cells maintained in 100 μL of culture medium.

[3] = tested on: Staphylococcus aureus ATCC 25923
Method: (§2) The Acinetobacter baumannii ATCC BAA-1605, Enterococcus faecium ATCC 700221, Escherichia coli ML-35 ATCC 43827, Klebsiella aerogenes ATCC 13048, Klebsiella pneumoniae ATCC 700603, Pseudomonas aeruginosa ATCC 9027, Staphylococcus aureus ATCC 25923, Staphylococcus aureus ATCC 33591, Candida albicans ATCC 10231, Candida glabrata ATCC 15126, strains were acquired from the American Type Culture Collection (ATCC). All the strains were stored at −80 °C in Roti-Store cryo vials and before the tests were transferred into fresh Mueller–Hinton broth (MHB, Biocorp, Warsaw, Poland) for bacteria or RPMI-1640 (Sigma-Aldrich, Steinheim, Germany) for fungi and incubated for 24 h at 37 °C. Then, the cultures were seeded on the Mueller–Hinton agar (BioMaxima, Lublin, Poland) or Sabouraud dextrose agar (SDA, BioMaxima, Lublin, Poland) plates, respectively, and incubated as just mentioned. These agar cultures were used for further microbiological assays. Cell densities for all assays were adjusted spectrophotometrically (Multiskan GO Microplate Spectrophotometer, Thermo Fisher Scientific, Vantaa, Finland) at 600 and 530 nm for bacteria and fungi, respectively.
(§3) The MICs were determined by the broth microdilution method according to the Clinical and Laboratory Standard Institute guidelines. […] The experiments were conducted on 96-well microtiter polystyrene plates (Kartell, Noviglio, Italy). The growth was assessed visually after incubation, and the MIC was assumed as the lowest peptide concentration at which a noticeable growth of microorganisms was inhibited. All experiments were conducted in triplicate.

[4] = tested on: Acinetobacter baumannii ATCC BAA 1605; conditions: ATCC BAA 1605, 24 h
Method: as §2, §3

[5] = tested on: Klebsiella pneumoniae ATCC 700603; conditions: ATCC 700603, 24 h
Method: as §2, §3

[6] = tested on: Pseudomonas aeruginosa ATCC 9027
Method: as §2, §3

[7] = tested on: Klebsiella aerogenes ATCC 13048; conditions: ATCC 13048, 24 h
Method: as §2, §3

[8] = tested on: Enterococcus faecium ATCC 700221
Method: as §2, §3

[9] = Critical aggregation concentration by surface tension (Du Noüy ring, K100 tensiometer); format: physicochemical; conditions: unbuffered aqueous solution, 298 K
Method: as §1
The critical aggregation concentration (CAC) values were determined fully automatically using a K100 tensiometer (KRUSS, Hamburg, Germany) equipped with two micro dosimeters by measuring the surface tension vs. lipopeptide concentration. The measurements were performed in unbuffered aqueous solution at 298 K using the Du Noüy ring method. The accuracy of the surface tension measurements was 0.1 mN/m. The critical aggregation concentration (CAC) was defined as the intersection of two lines fitted to the experimental data collected before and after the inflection point.

[10] = tested on: human red blood cells (hRBCs); assay: Hemolysis assay; format: cell-based; conditions: red cells of human, 1 h
Method: The hemolysis assay was performed by using the method reported previously. Fresh human red blood cells (hRBCs) with anticoagulant (EDTA) were rinsed three times with a PBS by centrifugation at 800× g for 10 min and diluted with PBS. The compounds were serially diluted on a 96-well microtiter polystyrene plate, and hRBCs were added up to a final volume of 100 μL. The compound concentration ranged between 0.5 and 256 μg/mL and the final hRBCs concentration was 4% (v/v). Controls for zero (blank) and 100% hemolysis consisted of hRBCs suspended in PBS and 1% of Triton-X 100 (Carl Roth GmbH, Karlsruhe, Germany), respectively. The plate was incubated for 1 h at 37 °C and then centrifuged (800× g, 10 min, 4 °C). Subsequently, the supernatant was […] to new microtiter plates, and the absorbance at 540 nm was measured (Multiskan GO Microplate Spectrophotometer, Thermo Fisher Scientific, Vantaa, Finland). All experiments were conducted in triplicate. HC50 was calculated using an ic50.tk tool. The protocol of the study was approved by the local Bioethics Committee at the Medical University of Gdańsk (NKBBN/262/2019, approval date: 10 June 2019).

Row | Structure (SMILES) | Adjusted Retention Time [1] | MIC Staphylococcus aureus ATCC 25923 ([3]; planktonic culture) | MIC Acinetobacter baumannii ATCC BAA 1605 [4] | MIC Klebsiella pneumoniae ATCC 700603 [5] | MIC Pseudomonas aeruginosa ATCC 9027 ([6]; planktonic culture) | MIC Klebsiella aerogenes ATCC 13048 [7] | MIC Enterococcus faecium ATCC 700221 ([8]; planktonic culture) | Difference in retention time calculated as tR’C—tR’B ([1]; between corresponding surfactants of series C and B) | IC50 [2] | CAC [9] | Surface Tension at CAC [9] | MIC Staphylococcus aureus ATCC 25923 ([3]; ATCC 25923, 24 h) | MIC Pseudomonas aeruginosa ATCC 9027 ([6]; ATCC 9027, 24 h) | MIC Enterococcus faecium ATCC 700221 ([8]; ATCC 700221, 24 h) | HC50 [10]
1 | CCCCCCCC(=O)N[C@@H](CCCNC(=N)N)C(=O)N[C@@H](CCCNC(=N)N)C(N)=O [Compound A1, C8-RR-NH2] (Octanoyl-Arg-Arg-NH2) | 2.93 min | >256 (−/−) µg/mL | >256 (−/−) µg/mL | >256 (−/−) µg/mL | >256 (−/−) µg/mL | >256 (−/−) µg/mL | >256 (−/−) µg/mL |  | >500 µg/mL |  |  |  |  |  | 
2 | CCCCCCCCCC(=O)N[C@@H](CCCNC(=N)N)C(=O)N[C@@H](CCCNC(=N)N)C(N)=O [Compound A2, C10-RR-NH2] (Decanoyl-Arg-Arg-NH2) | 7.74 min | 256 (−/−) µg/mL | >256 (−/−) µg/mL | >256 (−/−) µg/mL | >256 (−/−) µg/mL | >256 (−/−) µg/mL | 256 (−/−) µg/mL |  | >500 µg/mL |  |  |  |  |  | 
3 | CCCCCCCCCCCC(=O)N[C@@H](CCCNC(=N)N)C(=O)N[C@@H](CCCNC(=N)N)C(N)=O [Compound A3, C12-RR-NH2] (Lauroyl-Arg-Arg-NH2) | 12.15 min |  | 256 (−/−) µg/mL | >256 (−/−) µg/mL |  | >256 (−/−) µg/mL |  |  | 153.50 ± 8.13 µg/mL (≈ 300 µM) | 7.48 mM and 3827.3 μg/mL | 38 mN/m | 32 µg/mL (≈ 62.5 µM) | 128 µg/mL (≈ 250 µM) | 32 µg/mL (≈ 62.5 µM) | 
4 | CCCCCCCCCCCCCC(=O)N[C@@H](CCCNC(=N)N)C(=O)N[C@@H](CCCNC(=N)N)C(N)=O [Compound A4, C14-RR-NH2] (Myristoyl-Arg-Arg-NH2) | 16.31 min |  | 64 µg/mL (≈ 119 µM) | 256 (−/−) µg/mL |  | 256 (−/−) µg/mL |  |  | 46.48 ± 3.65 µg/mL (≈ 86.1 µM) | 1.67 mM and 899.7 μg/mL | 35 mN/m | 8 µg/mL (≈ 14.8 µM) | 32 µg/mL (≈ 59.3 µM) | 8 µg/mL (≈ 14.8 µM) | 
5 | CCCCCCCCCC(=O)N[C@@H](CCCNC(=N)N)C(=O)N[C@@H](CCCNC(=N)N)C(=O)NCCCC[C@H](NC(=O)[C@H](CCCNC(=N)N)NC(=O)[C@H](CCCNC(=N)N)NC(=O)CCCCCCCCC)C(N)=O [Compound B2] (Decanoyl-Arg-Arg-Lys([Arg-Arg-Decanoyl])-NH2) | 13.73 min |  | 8 µg/mL (≈ 7.42 µM) | 128 µg/mL (≈ 119 µM) |  | 128 µg/mL (≈ 119 µM) |  |  | 150.03 ± 3.15 µg/mL (≈ 139 µM) | 3.69 mM and 3980.0 μg/mL | 36 mN/m | 1 µg/mL (≈ 0.927 µM) | 8 µg/mL (≈ 7.42 µM) | 2 µg/mL (≈ 1.85 µM) | >256 µg/mL
6 | CCCCCCC(CCCC)C(=O)N[C@@H](CCCNC(=N)N)C(=O)N[C@@H](CCCNC(=N)N)C(=O)NCCCC[C@H](NC(=O)[C@H](CCCNC(=N)N)NC(=O)[C@H](CCCNC(=N)N)NC(=O)C(CCCC)CCCCCC)C(N)=O (stereo partly drawn) [Compound B7] | 14.68 min |  | 32 µg/mL (≈ 28.2 µM) | 32 µg/mL (≈ 28.2 µM) |  | 16 µg/mL (≈ 14.1 µM) |  |  | 78.78 ± 6.93 µg/mL (≈ 69.4 µM) |  |  | 1 µg/mL (≈ 0.881 µM) | 4 µg/mL (≈ 3.53 µM) | 1 µg/mL (≈ 0.881 µM) | >256 µg/mL

Continued, in another order:

Row | Adjusted Retention Time [1] | MIC Staphylococcus aureus ATCC 25923 ([3]; planktonic culture) | MIC Acinetobacter baumannii ATCC BAA 1605 [4] | MIC Klebsiella pneumoniae ATCC 700603 [5] | MIC Pseudomonas aeruginosa ATCC 9027 ([6]; planktonic culture) | MIC Klebsiella aerogenes ATCC 13048 [7] | MIC Enterococcus faecium ATCC 700221 ([8]; planktonic culture) | Difference in retention time calculated as tR’C—tR’B ([1]; between corresponding surfactants of series C and B) | Structure (SMILES) | IC50 [2] | CAC [9] | Surface Tension at CAC [9] | MIC Staphylococcus aureus ATCC 25923 ([3]; ATCC 25923, 24 h) | MIC Pseudomonas aeruginosa ATCC 9027 ([6]; ATCC 9027, 24 h) | MIC Enterococcus faecium ATCC 700221 ([8]; ATCC 700221, 24 h) | HC50 [10]
7 | 8.11 min |  | 256 (−/−) µg/mL | >256 (−/−) µg/mL |  | >256 (−/−) µg/mL |  |  | CCCCCCCC(=O)N[C@@H](CCCNC(=N)N)C(=O)N[C@@H](CCCNC(=N)N)C(=O)NCCCC[C@H](NC(=O)[C@H](CCCNC(=N)N)NC(=O)[C@H](CCCNC(=N)N)NC(=O)CCCCCCC)C(N)=O [Compound B1] (Octanoyl-Arg-Arg-Lys([Arg-Arg-Octanoyl])-NH2) | 378.40 ± 93.71 µg/mL (≈ 370 µM) |  |  | 4 µg/mL (≈ 3.91 µM) | 32 µg/mL (≈ 31.3 µM) | 64 µg/mL (≈ 62.6 µM) | >256 µg/mL
8 | 8.26 min |  | 256 (−/−) µg/mL | >256 (−/−) µg/mL |  | >256 (−/−) µg/mL |  | 0.15 min | CCCCCCCC(=O)N[C@@H](CCCNC(=N)N)C(=O)N[C@@H](CCCNC(=N)N)C(=O)N[C@@H](CSSC[C@H](NC(=O)[C@H](CCCNC(=N)N)NC(=O)[C@H](CCCNC(=N)N)NC(=O)CCCCCCC)C(N)=O)C(N)=O [Compound C1] (I: Octanoyl-Arg-Arg-Cys-NH2 / II: Octanoyl-Arg-Arg-Cys-NH2; disulfide I:3-II:3) | >500 µg/mL |  |  | 8 µg/mL (≈ 7.17 µM) | 64 µg/mL (≈ 57.4 µM) | 32 µg/mL (≈ 28.7 µM) | >256 µg/mL
